{
  "source": "patent US20110059909A1",
  "about": "“METHODS FOR TREATING INFLAMMATORY DISORDERS” (priority 2004, published 2011)",
  "key": {"[1]": {"details": "cited from earlier work"}, "rat SCI model": {"test_system": "rat SCI model", "assay": "Histology (H&E) and myelin (LFB-PAS) of spinal cord sections, rat SCI model", "type": "in vivo", "from_the_text": "Sprague-Dawley female rats (225-250 g weight) were purchased (Harlan laboratories, Durham, N.C.) for induction of SCI. All rats were given water and food pellets ad libitum and maintained in accordance with the ‘Guide for the Care and Use of Laboratory Animals’ of the US Department of Health and Human Services (National Institutes of Health, Bethesda, Md., USA). The inventors have used a clinically relevant weight-drop device for the induction of SCI in rats as described earlier (Gruner, 1992). Briefly, rats were anesthetized by intraperitoneal (i.p.) administration of ketamine (80 mg/kg) plus xylazine (10 mg/kg) followed by laminectomy at T12. While the spine was immobilized with a stereotactic device, injury (30 g/cm force) was induced by dropping a weight of 5 gm from a height of 6 cm onto an impounder gently placed on the spinal cord. Sham operated animals underwent laminectomy only. Upon recovery from anesthesia, animals were evaluated neurologically and monitored for food and water intake. However, no prophylactic antibiotics or analgesics were used in order to avoid their possible interactions with the experimental therapy of SCI.\nRats were anesthetized and sacrificed by decapitation."}, "PI-3K": {"test_system": "PI-3K", "assay": "PI-3 kinase activity assay", "type": "cell-based, rat", "details": "exogenous lipid", "description": "Cells after stimulation in serum-free DMEM/F-12 were lysed with ice-cold lysis buffer containing 1% (vol/vol) NP-40,100 mM NaCl, 20 mM Tris (pH 7.4), 10 mM iodoacetamide, 10 mM NaF, 1 mM sodium orthovanadate, 1 mM […], 1 μg/ml leupeptin, 1 μg/ml antipain, 1 mg/ml aprotinin, and 1 μg/ml pepstatin A. Lysates were incubated at 4° C. for 15 min, followed by centrifugation at 13,000 g for 15 min. The supernatant was pre-cleared with protein G-Sepharose beads (Pharmacia Biotech) for 1 h at 4° C. followed by the addition of 1 μg/ml p85α monoclonal antibody. After 2 h of incubation at 4° C., protein G-Sepharose beads were added and the resulting mixture was further incubated for 1 h at 4° C. The immunoprecipitates were washed twice with lysis buffer, once with phosphate-buffered saline (PBS), once with 0.5 M LiCl and 100 mM Tris (pH 7.6), once in water, and once in kinase buffer (5 mM MgCl2, 0.25 mM EDTA, 20 mM HEPES, pH 7.4). PI-3kinase activity was determined as already described (Ward et al., 1992; Pahan et al., 1999) using a lipid mixture of 100 μl of 0.1 mg/ml PI and 0.1 mg/ml phosphatidylserine dispersed by sonication in 20 mM HEPES (pH 7.0) and 1 mM EDTA. The reaction was initiated by the addition of 20 of [γ-32P] […]"}},
  "data": [
    {"compound": "CCCCCCCCCC(=O)NC(CN1CCOCC1)C(O)c1ccccc1.Cl", "note": "[PDMP, D-threo-1-Phenyl-2-decanoylamino-3-morpholino-1-propanol.HCl]", "values": [
      {"measurement": "Solubility in water", "setting": "[1]", "value": "soluble in water"},
      {"measurement": "Demyelination at the lesion epicenter", "setting": "rat SCI model; Day 2 and 3 post-SCI", "value": "reduced"},
      {"measurement": "Tissue necrosis at the lesion epicenter", "setting": "rat SCI model; Day 2 and 3 post-SCI", "value": "reduced"},
      {"measurement": "SCI induced white matter vacuolization and tissue necrosis", "setting": "rat SCI model; PDMP 20 mg/kg i.p. post-SCI, tissue analyzed 24 h post-SCI", "value": "markedly decreased"},
      {"measurement": "Protection against tissue destruction", "setting": "rat SCI model; PDMP given 12 h post-SCI, tissue analyzed 24 h post-SCI", "value": "substantial amount of protection"},
      {"measurement": "Demyelination (LFB staining)", "setting": "rat SCI model; PDMP treatment until 12 h post-SCI, 24 h post-SCI", "value": "attenuated"}
    ]},
    {"compound": "Lactosylceramide [LacCer]", "values": [
      {"measurement": "Reversal of DMS-mediated inhibition of PI-3K activation", "setting": "PI-3K", "value": "could not reverse"}
    ]}
  ]
}
